The record followed here is patent publication US20070161052A1, “TRPM5 based assays and the use thereof for the identification of modulators of sweet, bitter or umami (savory) taste” (SENOMYX, INC., priority 2005, published 2007).

Entries after “also recorded” stand apart in the source; their conditions may differ.

One test concerns the target T1, hTRPM5 (Homo sapiens, UniProt Q9NZQ8).
T1 construct: expressed in transfected cells
T1 sequence (Q9NZQ8 1-1165): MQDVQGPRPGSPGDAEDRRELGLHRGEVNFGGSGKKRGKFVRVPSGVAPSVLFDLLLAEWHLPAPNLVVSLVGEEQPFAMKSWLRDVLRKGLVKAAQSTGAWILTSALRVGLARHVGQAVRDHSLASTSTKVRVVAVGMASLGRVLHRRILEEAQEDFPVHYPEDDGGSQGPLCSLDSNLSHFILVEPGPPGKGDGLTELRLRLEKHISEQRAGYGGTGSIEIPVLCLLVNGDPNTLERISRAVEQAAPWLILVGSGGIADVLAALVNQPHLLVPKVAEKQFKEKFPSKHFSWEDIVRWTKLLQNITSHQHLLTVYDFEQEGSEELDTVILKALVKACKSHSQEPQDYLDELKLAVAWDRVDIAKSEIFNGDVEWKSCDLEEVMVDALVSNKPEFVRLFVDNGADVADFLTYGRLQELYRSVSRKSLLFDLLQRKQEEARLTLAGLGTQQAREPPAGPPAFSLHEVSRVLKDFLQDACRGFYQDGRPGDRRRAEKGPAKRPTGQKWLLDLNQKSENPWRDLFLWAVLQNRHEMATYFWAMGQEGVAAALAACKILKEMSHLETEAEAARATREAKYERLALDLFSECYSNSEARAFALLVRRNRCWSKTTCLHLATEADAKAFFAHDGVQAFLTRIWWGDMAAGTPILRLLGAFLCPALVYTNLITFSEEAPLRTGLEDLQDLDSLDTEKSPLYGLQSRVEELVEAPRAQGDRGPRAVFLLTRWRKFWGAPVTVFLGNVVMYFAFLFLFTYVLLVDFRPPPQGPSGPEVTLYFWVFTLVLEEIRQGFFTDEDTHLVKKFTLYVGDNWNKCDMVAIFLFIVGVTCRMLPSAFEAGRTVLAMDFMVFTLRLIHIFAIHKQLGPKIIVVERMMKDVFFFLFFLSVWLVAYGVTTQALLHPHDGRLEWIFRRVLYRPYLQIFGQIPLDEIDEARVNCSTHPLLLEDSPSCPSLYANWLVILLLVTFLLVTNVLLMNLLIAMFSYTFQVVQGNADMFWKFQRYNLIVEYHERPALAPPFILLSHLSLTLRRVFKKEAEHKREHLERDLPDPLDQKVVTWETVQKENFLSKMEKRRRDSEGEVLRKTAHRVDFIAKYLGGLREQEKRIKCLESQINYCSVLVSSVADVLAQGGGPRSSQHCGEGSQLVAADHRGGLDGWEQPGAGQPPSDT
The test can be described thus: hTRPM5 membrane potential dye FLIPR assay in HEK-293 cells (transient or stable clone). To be noted: for change in membrane potential in hTRPM5-expressing HEK293 cells: agonist of an expressed receptor (endogenous muscarinic, transfected H1 or AT1) or Ca2+ ionophore, dye R-8034; for dependence of agonist-induced change in membrane potential on extracellular Na+: NaCl versus NMDG replacement; for change in membrane potential in hTRPM5-expressing cells not transfected with the agonist's receptor: unrelated agonist control. In kind it is cell-based. As to the method: (§1) HEK-293 cells (about 50-70% confluency) contained in 10 cm dishes are transfected with 5 μg of TRPM5 DNA and pcDNA3 and 2 μg of RFP plasmids using TransH293.
(§2) After 24 hours, the cells are split into 384-well plates at ˜50,000 cells/well.
(§3) At 48 hours post-transfection the cells are loaded with membrane potential dyes in HBSS for 60 minutes at room temperature.
Compounds plates are prepared in HBSS.
HEK-293 cells transfected with TRPM5 nucleic acid sequence containing plasmid that comprises neo marker and stable cell clones are selected using neomycin.
Screened clones are screened using membrane potential dyes and FLIPR, for a GPCR-induced change in membrane potential.
This experiment is contained in FIG. 10. In the experiment HEK293 cells were transfected with a plasmid encoding hTRPM5 in pcDNA3.Neo. 48 hours later cells were put in selection media (500 ug/ml neomycin) and stable clones were selected and expanded. Clone #51 was further characterized for carbachol-induced hTRPM5 activation. Cells were loaded with a membrane potential dye (R-8034; Molecular Devices Corporation). […]

In a further test the target is T2, mouse TRPM5 (Mus musculus, UniProt Q9JJH7).
T2 construct: expressed in transfected cells; host or cells: HEK293, in some experiments co-transfected with the AT1 or H1 receptor or stably expressing mT2R5 and Galpha15
T2 sequence (Q9JJH7 1-1158): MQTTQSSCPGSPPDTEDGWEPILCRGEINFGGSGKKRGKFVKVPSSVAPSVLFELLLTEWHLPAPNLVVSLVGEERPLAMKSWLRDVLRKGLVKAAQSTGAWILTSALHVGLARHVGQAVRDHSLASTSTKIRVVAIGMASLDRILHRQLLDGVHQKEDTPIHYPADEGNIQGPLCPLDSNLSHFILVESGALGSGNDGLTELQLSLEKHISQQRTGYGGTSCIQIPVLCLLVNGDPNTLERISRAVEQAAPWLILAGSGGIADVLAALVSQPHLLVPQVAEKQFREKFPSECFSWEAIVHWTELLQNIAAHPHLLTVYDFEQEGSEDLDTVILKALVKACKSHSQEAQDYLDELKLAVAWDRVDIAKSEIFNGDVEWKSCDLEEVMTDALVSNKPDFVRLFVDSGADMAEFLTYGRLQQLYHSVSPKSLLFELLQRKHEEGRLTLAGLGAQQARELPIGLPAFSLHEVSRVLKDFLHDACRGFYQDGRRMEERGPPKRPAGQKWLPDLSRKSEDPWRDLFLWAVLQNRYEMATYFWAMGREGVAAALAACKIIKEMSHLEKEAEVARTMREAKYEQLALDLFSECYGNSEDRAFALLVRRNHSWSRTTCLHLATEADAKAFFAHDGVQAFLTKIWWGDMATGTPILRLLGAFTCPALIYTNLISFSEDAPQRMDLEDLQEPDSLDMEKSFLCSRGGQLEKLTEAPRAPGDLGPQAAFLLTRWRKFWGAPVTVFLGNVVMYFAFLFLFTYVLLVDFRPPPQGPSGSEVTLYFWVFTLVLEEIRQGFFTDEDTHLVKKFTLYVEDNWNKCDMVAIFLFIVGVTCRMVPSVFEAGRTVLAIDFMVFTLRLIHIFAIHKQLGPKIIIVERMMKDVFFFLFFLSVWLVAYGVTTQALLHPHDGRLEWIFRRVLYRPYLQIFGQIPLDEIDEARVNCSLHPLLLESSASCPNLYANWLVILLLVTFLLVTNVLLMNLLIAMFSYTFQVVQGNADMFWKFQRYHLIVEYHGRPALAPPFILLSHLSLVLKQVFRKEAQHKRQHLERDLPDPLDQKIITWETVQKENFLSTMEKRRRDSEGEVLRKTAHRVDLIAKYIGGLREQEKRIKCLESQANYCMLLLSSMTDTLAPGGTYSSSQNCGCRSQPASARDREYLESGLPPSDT
The test can be described thus: Mouse TRPM5 membrane potential dye assay in transfected HEK293 cells. In kind it is cell-based. The conditions noted are these: for change in membrane potential in mouse TRPM5-expressing HEK293 cells: agonist of an expressed receptor or Ca2+ ionophore, dye R-8034; for change in membrane potential in mouse TRPM5 cells not transfected with the agonist's receptor: unrelated agonist control. Here is the method: as §1, §2, §3
This experiment contained in FIG. 8 compares mTRPM5 responses to the calcium ionophore ionomycin and various GPCR agonists. As shown in the left top panel HEK293 cells were transfected with a plasmid encoding mouse TRPM5 (red trace) or a control plasmid (pUC; blue trace). 48 hours later cells were loaded with a membrane potential dye (R-8034; Molecular Devices Corporation).
This experiment contained in FIG. 9 compares hTRPM5 and mTRPM5 responses to GPCR agonist compounds. As shown in the left panel HEK293 cells stably expressing the cycloheximide bitter receptor mT2R5 and the promiscuous G protein G[…]15 were transfected with a plasmid encoding for mouse TRPM05 or a control plasmid (pUC). 48 hours later cells were loaded with a membrane potential dye (R-8034; Molecular Devices Corporation).

A further test deals with Ca^2+ mobilization. In words: Ca2+ mobilization with Ca2+-sensitive dye (Fluo3) in HEK293 cells. The format is cell-based, human. As to the method: (§4) As shown in the Left Panel: HEK293 cells were transfected with a plasmid encoding hTRPM5. 48 hours later cells were loaded with either a membrane potential dye (Molecular Devices Corporation; R-8034 or DisBAC) or a Ca^2+-sensitive dye (Fluo3). […] As shown in the Right Panel: HEK293 cells were transfected with a control plasmid (pUC) and treated as described above.
This experiment the results of which are contained in FIG. 7 compared TRPM5 responses to the Ca++ ionophore ionomycin. As shown in the left panel HEK293 cells were transfected with a plasmid encoding hTRPM5. 48 hours later cells were loaded with either a membrane potential dye (R-8034; Molecular Devices Corporation) or a Ca^2+-sensitive dye (Fluo3).
(§5) In this experiment the results of which are contained in FIG. 11 a library of ˜15,000 compounds (10 uM) was screened for hTRPM5 modulators using clone #51 (described in FIG. 10). In our initial screening conditions hTRPM5 was maximally stimulated with carbachol, using concentrations of 50 uM to 100 uM.
A general note: Calcium assays in cells follow changes in intracellular calcium, usually with a dye or a luminescent sensor.

Test [1] deals with HEK293 cells lacking hTRPM5. In words: Membrane potential dye assay in HEK293 cells lacking hTRPM5 (control plasmid pUC). The format is cell-based, human. The conditions noted are these: agonist stimulation. As to the method: as §4
This experiment the results of which are shown in FIG. 5 evaluated TRPM5 induced changes in membrane potential. As shown in the left panel HEK293 cells were transfected with plasmids encoding the H1 histamine receptor with (red trace) or without (blue trace) a plasmid encoding hTRPM5. 48 hours later cells were loaded with a membrane potential dye (R-8034; Molecular Devices Corporation).
as §5

Consider `CNc1ccc2oc(C[C@H]3O[C@@]4(CC[C@H]3C)O[C@H]([C@H](C)C(=O)c3ccc[nH]3)[C@H](C)C[C@H]4C)nc2c1C(=O)O` [A-23187], for which the “change in membrane potential in hTRPM5-expressing HEK293 cells” value (“change … in hTRPM5-expressing HEK293 cells” below) on hTRPM5 is “TRPM5-dependent changes in membrane potential”. On mouse TRPM5, the “change in membrane potential in mouse TRPM5-expressing HEK293 cells” value is “TRPM5-dependent changes in membrane potential”.

On to `C[N+](C)(C)CCOC(N)=O` [carbachol], for which the hTRPM5 activity produced on hTRPM5 (2 um carbachol) is given as 10-25%. On hTRPM5, the “dependence of agonist-induced change in membrane potential on extracellular Na+” value (“dependence of agonist-induced change” below) is “only observed in the presence of NaCl” and the “change … in hTRPM5-expressing HEK293 cells” value is given as “concomitant increase in membrane potential; also recorded: dose-dependent increase in membrane potential; also recorded: dose-dependent increase in membrane potential that is much greater than what is seen in cells not expressing hTRPM5”. Also, the “change in membrane potential in mouse TRPM5-expressing HEK293 cells” value at mouse TRPM5 is listed as “dose-dependent increase in membrane potential”. In the test on Ca^2+ mobilization, the “Ca^2+ response in control plasmid (pUC) transfected HEK293 cells” value is reported as “a significant increase in Ca^2+ is triggered” and the “Ca^2+ response in hTRPM5-transfected HEK293 cells” value is recorded as “leads to Ca^2+ mobilization”. The “change in membrane potential in cells lacking hTRPM5” value (from here on “change … in cells lacking hTRPM5”) in test [1] is reported as “no change in membrane potential is observed; also recorded: no significant change in membrane potential”.

Turning to `C[C@@H]1C[C@@H]([C@H](O)CC2CC(=O)NC(=O)C2)C(=O)[C@@H](C)C1` [cycloheximide], the “change in membrane potential in mT2R05 / G15 stable HEK293 cells transfected with human TRPM5” value on hTRPM5 (versus pUC control) is on record as “dose-dependent increase in membrane potential that is much greater than what is seen in cells not expressing human TRPM5”. Moreover, the “change in membrane potential in mT2R5 / G15 stable HEK293 cells transfected with mouse TRPM5” value on mouse TRPM5 (versus pUC control) is listed as “dose-dependent increase in membrane potential that was much greater than what is seen in cells not expressing mouse TRPM5”.

On to `NCCc1c[nH]cn1` [histamine], for which, at hTRPM5, the “dependence of agonist-induced change” value was “only observed in the presence of NaCl”, the “change … in hTRPM5-expressing HEK293 cells” value is listed as “dose-dependent increase in membrane potential” and the “change in membrane potential in hTRPM5-expressing cells not transfected with the agonist's receptor” value is given as “has no effect”. At mouse TRPM5, the “change in membrane potential in mouse TRPM5-expressing HEK293 cells” value is “dose-dependent increase in membrane potential” and the “change in membrane potential in mouse TRPM5 cells not transfected with the agonist's receptor” value is reported as “did not have any effect”. Besides, in test [1], the “change … in cells lacking hTRPM5” value is given as “no significant change in membrane potential”.

As to `C[C@H](CCC(=O)O)C[C@H](C)C[C@H](C)C(=O)/C=C(\O)[C@H](C)C[C@H](C)C/C=C/[C@@H](C)[C@@H](O)[C@@H](C)[C@@H](O)C[C@@H]1CC[C@@](C)([C@H]2CC[C@@](C)([C@@H](C)O)O2)O1` [ionomycin], at hTRPM5, the “change … in hTRPM5-expressing HEK293 cells” value is reported as “concomitant increase in membrane potential; also recorded: dose-dependent increase in membrane potential that is noticeably greater in hTRPM5-expressing cells; also recorded: TRPM5-dependent changes in membrane potential”. In addition, the “change in membrane potential in mouse TRPM5-expressing HEK293 cells” value on mouse TRPM5 is listed as “dose-dependent increase in membrane potential that is significantly greater in mouse-TRPM5 transfected cells; also recorded: TRPM5-dependent changes in membrane potential”. In addition, the “Ca^2+ response in hTRPM5-transfected HEK293 cells” value in the test with Ca^2+ mobilization is listed as “leads to Ca^2+ influx”.

Regarding “angiotensin II (DRVYIHPF) [AT1 angiotensin II receptor agonist]”, in the test with hTRPM5, the “dependence of agonist-induced change” value is recorded as “only observed in the presence of NaCl”, the “change … in hTRPM5-expressing HEK293 cells” value was “dose-dependent increase in membrane potential” and the “change in membrane potential in hTRPM5-expressing cells not transfected with the agonist's receptor” value is recorded as “did not have any effect”. Also, in the test with mouse TRPM5, the “change in membrane potential in mouse TRPM5-expressing HEK293 cells” value is “dose-dependent increase in membrane potential” and the “change in membrane potential in mouse TRPM5 cells not transfected with the agonist's receptor” value is on record as “had no effect”. In addition, the “change … in cells lacking hTRPM5” value in test [1] is listed as “no significant change in membrane potential”.
